Test results taken from ChEMBL document CHEMBL1201862, “PubChem BioAssay data set” (2004).
Active and inactive are the calls of the source.

Experiments:
[1] = biological target: DNA dC->dU-editing enzyme APOBEC-3G (Homo sapiens, UniProt Q9HC16); format: functional;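 note: Dose-response counterscreen measuring inhibition of APOBEC3G DNA deaminase activity, run while confirming APOBEC3A inhibitors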
[2] = biological target: DNA dC->dU-editing enzyme APOBEC-3A (Homo sapiens, UniProt P31941); experiment: Dose Response confirmation of small molecule APOBEC3A DNA Deaminase Inhibitors via a fluorescence-based single-stranded DNA deaminase assay. [Related pubchem assays (depositor defined):AID493011, AID493024]; format: functional
Chain of DNA dC->dU-editing enzyme APOBEC-3A (P31941 whole entry): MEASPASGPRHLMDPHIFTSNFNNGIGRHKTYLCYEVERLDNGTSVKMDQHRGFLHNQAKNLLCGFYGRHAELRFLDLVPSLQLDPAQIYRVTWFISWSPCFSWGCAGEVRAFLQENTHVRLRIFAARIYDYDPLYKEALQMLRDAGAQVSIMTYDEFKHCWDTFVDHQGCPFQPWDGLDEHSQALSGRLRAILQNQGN

[3] = biological target: T1, Microphthalmia-associated transcription factor (Homo sapiens, UniProt O75030); experiment: TRPM1 promoter luciferase signal decrease, dose response, MITF inhibitor project, cell-based, SK-MEL-5, cherry-picked, set 3 (AID 493073); format: functional
T1 sequence (O75030 whole entry): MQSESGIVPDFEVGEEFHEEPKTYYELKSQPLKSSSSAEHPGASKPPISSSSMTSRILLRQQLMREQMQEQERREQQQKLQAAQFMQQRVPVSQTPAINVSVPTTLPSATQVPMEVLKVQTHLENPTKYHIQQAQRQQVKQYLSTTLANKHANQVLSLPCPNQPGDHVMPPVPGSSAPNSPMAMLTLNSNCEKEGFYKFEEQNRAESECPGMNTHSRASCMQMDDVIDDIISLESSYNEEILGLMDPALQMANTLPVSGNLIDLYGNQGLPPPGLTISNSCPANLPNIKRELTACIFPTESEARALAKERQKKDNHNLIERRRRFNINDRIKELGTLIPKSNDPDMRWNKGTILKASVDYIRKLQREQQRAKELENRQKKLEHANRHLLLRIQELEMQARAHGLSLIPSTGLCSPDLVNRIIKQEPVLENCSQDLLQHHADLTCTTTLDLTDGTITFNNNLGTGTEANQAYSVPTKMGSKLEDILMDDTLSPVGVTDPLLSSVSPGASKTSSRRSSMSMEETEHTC

[4] = MDA-MB-231 cell growth inhibition, dose response, cytotoxicity control for RAD54 inhibitor project, CellTiter-Glo luminescence, cherry-pick (AID 651692); format: functional, cell-based
[5] = biological target: T2, Ubiquitin-conjugating enzyme E2 N (Homo sapiens, UniProt P61088); format: functional;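 note: Dose-response confirmation in a TR-FRET assay detecting UBC13-driven polyubiquitin chain formation, inhibition measured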
T2 sequence (P61088 whole entry): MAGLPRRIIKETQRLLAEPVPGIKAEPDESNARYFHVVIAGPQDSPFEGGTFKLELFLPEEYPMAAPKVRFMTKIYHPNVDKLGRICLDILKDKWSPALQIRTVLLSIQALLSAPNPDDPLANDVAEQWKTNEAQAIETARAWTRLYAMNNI

[6] = Vero E6 cell cytotoxicity, dose response, cytotoxicity control for non-replicating M. tuberculosis project, secondary assay (AID 492998); format: functional, VeroE6; conditions: Vero C1008
A-375 = experiment: A375 melanoma cell viability reduction, dose response, counter-screen for MITF modulator project, cherry-pick samples, set 2 (AID 540335); format: functional, cell-based; conditions: Homo sapiens
[7] = biological target: SWI/SNF-related matrix-associated actin-dependent regulator of chromatin subfamily A member 2 (Homo sapiens, UniProt P51531); experiment: Luminescence-based cell-based high throughput dose response assay to identify activators of the function of SWI/SNF related, matrix associated, actin dependent regulator of chromatin, subfamily a, member 2 (SMARCA2, BRM).; format: functional
[8] = HepG2 cell cytotoxicity, dose response, cytotoxicity control for non-replicating M. tuberculosis project (AID 489018); format: functional; conditions: Mycobacterium tuberculosis
[9] = THP-1 cell cytotoxicity, dose response, cytotoxicity control for non-replicating M. tuberculosis project (AID 489025); format: functional
cells = format: functional
[10] = biological target: T3, DNA repair and recombination protein RAD54-like (Homo sapiens, UniProt Q92698); experiment: inhibitors of human RAD54 branch migration, confirmation, biochemical, fluorescence, cherry-picked samples, dose series (AID 651657); format: functional
T3 sequence (Q92698 whole entry): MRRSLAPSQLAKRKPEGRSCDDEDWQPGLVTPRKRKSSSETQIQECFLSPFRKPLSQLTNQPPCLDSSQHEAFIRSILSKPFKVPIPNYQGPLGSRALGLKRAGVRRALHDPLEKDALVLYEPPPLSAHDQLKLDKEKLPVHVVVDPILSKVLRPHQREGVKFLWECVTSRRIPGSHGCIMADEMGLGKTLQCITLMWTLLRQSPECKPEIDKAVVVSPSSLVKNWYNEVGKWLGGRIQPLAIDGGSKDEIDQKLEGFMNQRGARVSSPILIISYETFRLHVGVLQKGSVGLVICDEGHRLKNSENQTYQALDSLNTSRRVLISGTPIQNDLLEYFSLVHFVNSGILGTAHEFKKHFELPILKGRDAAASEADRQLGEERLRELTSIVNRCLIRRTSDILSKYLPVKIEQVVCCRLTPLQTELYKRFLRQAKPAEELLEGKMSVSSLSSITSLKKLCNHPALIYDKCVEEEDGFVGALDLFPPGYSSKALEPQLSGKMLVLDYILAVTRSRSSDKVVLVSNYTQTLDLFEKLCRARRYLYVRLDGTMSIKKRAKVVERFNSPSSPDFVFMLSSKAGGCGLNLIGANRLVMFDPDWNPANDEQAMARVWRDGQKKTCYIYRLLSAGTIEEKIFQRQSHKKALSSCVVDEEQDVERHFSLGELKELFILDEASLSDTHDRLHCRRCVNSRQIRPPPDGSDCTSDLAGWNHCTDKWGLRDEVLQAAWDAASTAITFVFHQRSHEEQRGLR

[11] = Counterscreen for activators of the function of SWI/SNF related, matrix associated, actin dependent regulator of chromatin, subfamily a, member 2 (SMARCA2, BRM): Luminescence-based cell-based high throughput dose response assay to identify non-selective compounds using the VP16 reporter assay.; format: functional
Protein RecA = biological target: T4, Protein RecA (Mycobacterium tuberculosis, UniProt P9WHJ3); experiment: Fluorescence Cell-Free Homogeneous Dose Retest to Identify Inhibitors of RecA-Intein Splicing Activity. [Related pubchem assays (depositor defined):AID2097, AID2223, AID489010, AID492950]; format: functional
T4 sequence (P9WHJ3 whole entry): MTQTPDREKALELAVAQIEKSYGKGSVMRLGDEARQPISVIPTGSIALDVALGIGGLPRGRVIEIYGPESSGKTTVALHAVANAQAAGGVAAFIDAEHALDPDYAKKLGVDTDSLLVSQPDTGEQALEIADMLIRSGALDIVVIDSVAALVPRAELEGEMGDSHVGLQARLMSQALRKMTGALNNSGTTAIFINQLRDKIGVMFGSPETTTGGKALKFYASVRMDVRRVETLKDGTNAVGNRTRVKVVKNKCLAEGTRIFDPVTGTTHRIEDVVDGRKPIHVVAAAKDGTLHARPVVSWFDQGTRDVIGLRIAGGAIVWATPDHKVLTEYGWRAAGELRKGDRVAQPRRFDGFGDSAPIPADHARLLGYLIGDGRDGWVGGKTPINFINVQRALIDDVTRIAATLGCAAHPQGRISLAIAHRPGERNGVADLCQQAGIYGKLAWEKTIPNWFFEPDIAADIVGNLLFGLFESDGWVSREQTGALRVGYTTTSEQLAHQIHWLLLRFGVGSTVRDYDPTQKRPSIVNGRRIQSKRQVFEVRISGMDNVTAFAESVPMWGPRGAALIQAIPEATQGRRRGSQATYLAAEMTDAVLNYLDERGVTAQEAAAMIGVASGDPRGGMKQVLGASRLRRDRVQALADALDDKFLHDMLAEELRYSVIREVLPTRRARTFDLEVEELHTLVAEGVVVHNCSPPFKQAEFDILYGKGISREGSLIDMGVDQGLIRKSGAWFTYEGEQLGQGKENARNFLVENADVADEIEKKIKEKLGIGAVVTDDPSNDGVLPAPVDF

[12] = biological target: T5, Replicative DNA helicase DnaB (Mycobacterium tuberculosis, UniProt P9WMR3); experiment: DnaB intein splicing inhibitors, dose response, biochemical, cell-free fluorescence (AID 449749); format: functional
T5 sequence (P9WMR3 whole entry): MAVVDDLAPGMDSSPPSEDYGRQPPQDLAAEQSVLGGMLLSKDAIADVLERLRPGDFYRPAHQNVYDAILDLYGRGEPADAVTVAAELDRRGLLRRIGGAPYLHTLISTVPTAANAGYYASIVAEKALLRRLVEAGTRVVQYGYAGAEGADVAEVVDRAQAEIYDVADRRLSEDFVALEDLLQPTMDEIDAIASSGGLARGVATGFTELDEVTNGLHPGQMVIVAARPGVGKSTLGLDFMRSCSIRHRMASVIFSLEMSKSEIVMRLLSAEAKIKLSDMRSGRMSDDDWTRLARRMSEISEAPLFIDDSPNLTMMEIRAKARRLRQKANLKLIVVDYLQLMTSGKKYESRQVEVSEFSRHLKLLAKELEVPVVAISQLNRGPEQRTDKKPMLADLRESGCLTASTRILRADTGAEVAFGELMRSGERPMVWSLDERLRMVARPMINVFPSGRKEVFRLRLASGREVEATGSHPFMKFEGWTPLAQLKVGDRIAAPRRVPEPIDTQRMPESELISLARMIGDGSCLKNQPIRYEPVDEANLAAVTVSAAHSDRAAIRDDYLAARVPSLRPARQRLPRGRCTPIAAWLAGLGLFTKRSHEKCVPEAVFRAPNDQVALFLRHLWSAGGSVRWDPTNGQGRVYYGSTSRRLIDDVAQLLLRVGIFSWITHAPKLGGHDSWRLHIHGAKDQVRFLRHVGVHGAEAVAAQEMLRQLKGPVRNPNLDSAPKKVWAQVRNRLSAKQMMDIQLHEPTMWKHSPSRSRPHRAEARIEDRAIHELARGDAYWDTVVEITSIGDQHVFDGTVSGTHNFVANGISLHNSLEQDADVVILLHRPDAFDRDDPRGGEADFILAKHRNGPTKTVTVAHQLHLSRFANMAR

Genome polyprotein = Genome polyprotein (dengue virus type 2, UniProt P29990); experiment: Dengue-2 NS5 methyltransferase inhibitors, primary screen, biochemical, confirmation dose response (AID 588689); format: functional
Chain of Genome polyprotein (P29990 2492-3391 limits assumed): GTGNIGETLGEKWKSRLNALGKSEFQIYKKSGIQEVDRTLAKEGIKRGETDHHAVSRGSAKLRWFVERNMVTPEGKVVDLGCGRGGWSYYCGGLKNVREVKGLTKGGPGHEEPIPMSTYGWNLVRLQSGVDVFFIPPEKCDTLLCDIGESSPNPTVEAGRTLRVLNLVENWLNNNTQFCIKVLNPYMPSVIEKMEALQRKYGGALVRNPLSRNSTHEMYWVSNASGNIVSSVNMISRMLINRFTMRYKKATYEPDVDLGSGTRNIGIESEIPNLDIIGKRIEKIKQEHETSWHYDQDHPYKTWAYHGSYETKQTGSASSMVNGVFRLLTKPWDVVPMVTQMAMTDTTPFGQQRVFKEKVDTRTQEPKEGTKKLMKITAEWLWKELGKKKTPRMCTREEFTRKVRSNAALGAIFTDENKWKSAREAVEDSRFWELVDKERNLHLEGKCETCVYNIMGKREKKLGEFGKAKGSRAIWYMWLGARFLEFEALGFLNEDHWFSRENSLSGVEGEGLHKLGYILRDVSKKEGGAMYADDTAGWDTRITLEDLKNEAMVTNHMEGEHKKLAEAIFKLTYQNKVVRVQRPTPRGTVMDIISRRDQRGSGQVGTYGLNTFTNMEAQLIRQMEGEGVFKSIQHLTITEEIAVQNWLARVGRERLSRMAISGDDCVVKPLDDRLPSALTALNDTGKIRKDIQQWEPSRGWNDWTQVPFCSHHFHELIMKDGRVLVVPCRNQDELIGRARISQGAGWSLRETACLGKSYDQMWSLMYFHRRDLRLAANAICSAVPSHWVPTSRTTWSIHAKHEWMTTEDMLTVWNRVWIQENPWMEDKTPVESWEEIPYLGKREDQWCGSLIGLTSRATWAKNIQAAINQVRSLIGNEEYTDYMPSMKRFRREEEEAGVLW

Fatty acid synthase [13] = biological target: T6, Fatty acid synthase (Homo sapiens, UniProt P49327); experiment: FAS thioesterase domain inhibitors, dose response, biochemical, kinetic fluorescence intensity (AID 624326); format: functional;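 note: rate of fluorescence rise from hydrolysis of a fluorogenic O-methyl fluorescein ester substrate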
T6 sequence (P49327 whole entry, the tested form may be a part): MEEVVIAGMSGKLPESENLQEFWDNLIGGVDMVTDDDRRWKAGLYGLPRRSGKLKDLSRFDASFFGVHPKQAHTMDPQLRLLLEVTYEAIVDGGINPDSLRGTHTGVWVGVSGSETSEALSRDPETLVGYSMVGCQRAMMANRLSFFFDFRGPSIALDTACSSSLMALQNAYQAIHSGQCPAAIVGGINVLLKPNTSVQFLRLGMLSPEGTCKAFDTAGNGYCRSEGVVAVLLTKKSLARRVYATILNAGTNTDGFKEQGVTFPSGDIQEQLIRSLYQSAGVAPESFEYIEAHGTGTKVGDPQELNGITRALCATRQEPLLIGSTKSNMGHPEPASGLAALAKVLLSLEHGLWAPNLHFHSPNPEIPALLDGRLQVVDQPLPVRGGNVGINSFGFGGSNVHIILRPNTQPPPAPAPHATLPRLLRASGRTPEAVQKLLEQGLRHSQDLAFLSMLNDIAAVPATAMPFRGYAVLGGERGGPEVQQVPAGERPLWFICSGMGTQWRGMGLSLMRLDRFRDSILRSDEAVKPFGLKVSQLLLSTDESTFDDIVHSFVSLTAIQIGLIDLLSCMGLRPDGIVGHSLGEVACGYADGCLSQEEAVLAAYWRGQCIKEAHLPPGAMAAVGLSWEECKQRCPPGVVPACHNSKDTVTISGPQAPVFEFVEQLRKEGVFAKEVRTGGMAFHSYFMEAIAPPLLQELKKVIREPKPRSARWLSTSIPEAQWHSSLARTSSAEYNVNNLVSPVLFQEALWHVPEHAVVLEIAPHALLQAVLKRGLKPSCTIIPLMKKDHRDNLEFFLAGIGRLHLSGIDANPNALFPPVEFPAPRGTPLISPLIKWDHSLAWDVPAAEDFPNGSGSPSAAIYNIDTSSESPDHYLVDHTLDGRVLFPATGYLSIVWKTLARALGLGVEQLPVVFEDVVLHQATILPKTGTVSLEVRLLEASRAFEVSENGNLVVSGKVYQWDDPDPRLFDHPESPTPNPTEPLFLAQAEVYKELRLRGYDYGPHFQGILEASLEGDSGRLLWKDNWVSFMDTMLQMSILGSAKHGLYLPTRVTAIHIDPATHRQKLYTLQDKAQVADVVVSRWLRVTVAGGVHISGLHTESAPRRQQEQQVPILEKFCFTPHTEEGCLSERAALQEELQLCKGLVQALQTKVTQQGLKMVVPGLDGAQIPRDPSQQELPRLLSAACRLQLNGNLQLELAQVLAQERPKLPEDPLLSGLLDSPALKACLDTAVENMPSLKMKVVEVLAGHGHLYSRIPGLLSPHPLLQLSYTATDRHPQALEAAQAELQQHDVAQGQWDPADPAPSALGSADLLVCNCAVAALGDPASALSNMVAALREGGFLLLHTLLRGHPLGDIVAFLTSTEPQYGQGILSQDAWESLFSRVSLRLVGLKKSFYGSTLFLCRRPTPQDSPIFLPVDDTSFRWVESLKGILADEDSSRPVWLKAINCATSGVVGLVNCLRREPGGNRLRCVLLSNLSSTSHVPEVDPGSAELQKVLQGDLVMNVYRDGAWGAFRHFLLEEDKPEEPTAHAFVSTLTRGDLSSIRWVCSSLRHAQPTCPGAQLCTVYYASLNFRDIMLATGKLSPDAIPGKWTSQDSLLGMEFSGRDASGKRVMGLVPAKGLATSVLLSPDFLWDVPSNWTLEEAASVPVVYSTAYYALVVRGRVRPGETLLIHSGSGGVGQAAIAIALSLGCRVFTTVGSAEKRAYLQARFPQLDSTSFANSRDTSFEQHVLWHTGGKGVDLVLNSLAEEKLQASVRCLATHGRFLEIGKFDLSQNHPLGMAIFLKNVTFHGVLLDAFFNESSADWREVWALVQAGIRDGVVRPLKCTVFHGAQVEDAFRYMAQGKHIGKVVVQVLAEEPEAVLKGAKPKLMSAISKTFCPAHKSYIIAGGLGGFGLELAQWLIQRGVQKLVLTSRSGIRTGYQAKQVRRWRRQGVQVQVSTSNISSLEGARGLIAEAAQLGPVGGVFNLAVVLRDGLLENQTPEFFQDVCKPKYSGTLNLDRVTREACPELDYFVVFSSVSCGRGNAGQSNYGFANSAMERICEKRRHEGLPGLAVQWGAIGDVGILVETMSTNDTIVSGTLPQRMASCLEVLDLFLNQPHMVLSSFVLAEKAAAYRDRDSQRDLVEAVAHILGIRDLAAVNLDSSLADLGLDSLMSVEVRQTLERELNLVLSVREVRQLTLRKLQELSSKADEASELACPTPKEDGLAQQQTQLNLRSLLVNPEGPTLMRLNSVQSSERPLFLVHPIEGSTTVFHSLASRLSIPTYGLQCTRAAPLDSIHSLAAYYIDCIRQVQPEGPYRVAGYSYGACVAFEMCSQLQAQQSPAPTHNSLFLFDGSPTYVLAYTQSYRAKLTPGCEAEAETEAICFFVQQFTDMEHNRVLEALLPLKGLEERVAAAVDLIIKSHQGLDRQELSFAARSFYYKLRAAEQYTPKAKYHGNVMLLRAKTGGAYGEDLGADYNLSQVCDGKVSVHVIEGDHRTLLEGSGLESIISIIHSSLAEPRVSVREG

Fatty acid synthase [14] = biological target: T6, Fatty acid synthase; experiment: FAS thioesterase domain inhibitors, dose response, biochemical, endpoint fluorescence intensity, uHTS hits (AID 624327); format: functional;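 note: fluorescence from hydrolysis of an O-methyl fluorescein acyl ester substrate by the enzyme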
Prothrombin = Prothrombin (Homo sapiens, UniProt P00734); experiment: Thrombin 1536 HTS Dose Response Confirmation. [Related pubchem assays: 1046 (Thrombin 1536 HTS; hits were confirmed in this assay)]; format: functional
[15] = biological target: DNA damage-inducible transcript 3 protein (Mus musculus, UniProt P35639); format: functional, Cricetulus griseus
Chain of DNA damage-inducible transcript 3 protein (P35639 whole entry): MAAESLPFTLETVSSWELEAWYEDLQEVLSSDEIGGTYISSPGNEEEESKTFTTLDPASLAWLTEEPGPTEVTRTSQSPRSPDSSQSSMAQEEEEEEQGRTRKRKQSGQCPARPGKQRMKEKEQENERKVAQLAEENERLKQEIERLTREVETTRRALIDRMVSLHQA

Chain of DNA dC->dU-editing enzyme APOBEC-3G (Q9HC16 whole entry): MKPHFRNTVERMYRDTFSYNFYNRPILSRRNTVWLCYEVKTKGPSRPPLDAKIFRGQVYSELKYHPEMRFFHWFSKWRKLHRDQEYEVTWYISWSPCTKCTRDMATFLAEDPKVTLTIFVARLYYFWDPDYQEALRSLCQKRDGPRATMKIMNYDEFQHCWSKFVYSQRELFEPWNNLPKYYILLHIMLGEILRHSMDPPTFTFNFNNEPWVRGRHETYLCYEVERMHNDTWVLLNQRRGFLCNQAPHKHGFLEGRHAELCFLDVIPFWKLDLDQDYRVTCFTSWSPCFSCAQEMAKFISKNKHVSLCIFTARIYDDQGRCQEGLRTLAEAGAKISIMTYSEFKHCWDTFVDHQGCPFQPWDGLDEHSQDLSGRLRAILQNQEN

Q: What does the source list for `CC(=O)Nc1nc(CC(C)C)cc(-c2ccco2)c1C#N`?
A: IC50 [1]: 5.76 µM (active); IC50 [2]: 4.18 µM (active)

Q: Which AC50 [3] does the source give for `CCOC(=O)c1c(NC(C)=O)sc2c(OCC(O)CNC(C)(C)C)c(Br)ccc12` (stereo not given) here?
A: The AC50 was 7.72 µM (active).

Q: What about the AC50 [4] of the same molecule?
A: The AC50 was 21 µM (active).

Q: And the IC50 [5]?
A: The IC50 was > 20 µM (inactive).

Q: What about the CC50 [6] of the same molecule?
A: Its CC50 is 7.28 µM (active).

Q: What about the AC50 (A-375) of the same molecule?
A: The AC50 was 19.9 µM (active).

Q: And the EC50 [7]?
A: The EC50 was > 91.2 µM (inactive).

Q: What about the CC50 [8] of the same molecule?
A: Its CC50 is 11.9 µM (active).

Q: And the CC50 [9]?
A: The CC50 was 12.5 µM (active).

Q: What about the IC50 (cells) of the same molecule?
A: The IC50 was 10.2 µM (active).

Q: What about the AC50 [10] of the same molecule?
A: The AC50 was 8.96 µM (active).

Q: What about the EC50 [11] of the same molecule?
A: The EC50 was > 91.2 µM (inactive).

Q: With `Cc1cc(C)c(S(=O)(=O)ON2C(=O)c3ccccc3C2=O)cc1C` as the molecule, how does the EC50 (Protein RecA) read?
A: The EC50 was 10.2 µM (active).

Q: What about the AC50 [12] of the same molecule?
A: Its AC50 is > 380 µM (inactive).

Q: What about the IC50 (Genome polyprotein) of the same molecule?
A: Its IC50 is 76.2 µM (active).

Q: And the IC50 (Fatty acid synthase [13])?
A: The IC50 was 3.91 µM (active).

Q: And the IC50 (Fatty acid synthase [14])?
A: The IC50 was 0.744 µM (active).

Q: And the IC50 (Prothrombin)?
A: Its IC50 is 2.57 µM (active).

Q: And the “Absolute IC50 (CHOP)” value [15]?
A: Its value is 10 µM.
